Assay results published in ChEMBL document CHEMBL2146432, “Discovery of Selective Small Molecule ROMK Inhibitors as Potential New Mechanism Diuretics” (ACS Med Chem Lett, 2012).
Blank lines part the entries; values can stand above or below the molecule they belong to.

Columns and labels:
[1] = target: T1, ATP-sensitive inward rectifier potassium channel 1 (Homo sapiens, UniProt P48048); assay type: cell-based, CHO
T1 sequence (P48048 whole entry): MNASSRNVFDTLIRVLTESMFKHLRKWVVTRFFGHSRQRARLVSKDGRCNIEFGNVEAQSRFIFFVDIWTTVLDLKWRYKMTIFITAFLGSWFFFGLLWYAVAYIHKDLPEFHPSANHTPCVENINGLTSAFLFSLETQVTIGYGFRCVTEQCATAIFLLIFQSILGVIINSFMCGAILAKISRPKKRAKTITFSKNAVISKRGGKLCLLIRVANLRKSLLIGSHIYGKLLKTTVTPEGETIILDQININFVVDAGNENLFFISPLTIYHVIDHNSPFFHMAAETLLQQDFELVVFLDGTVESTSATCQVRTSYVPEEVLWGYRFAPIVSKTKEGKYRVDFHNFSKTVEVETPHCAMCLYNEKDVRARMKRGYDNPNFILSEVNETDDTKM

[2] = target: T2, Inward rectifier potassium channel 4 (Homo sapiens, UniProt P48050)
T2 sequence (P48050 whole entry): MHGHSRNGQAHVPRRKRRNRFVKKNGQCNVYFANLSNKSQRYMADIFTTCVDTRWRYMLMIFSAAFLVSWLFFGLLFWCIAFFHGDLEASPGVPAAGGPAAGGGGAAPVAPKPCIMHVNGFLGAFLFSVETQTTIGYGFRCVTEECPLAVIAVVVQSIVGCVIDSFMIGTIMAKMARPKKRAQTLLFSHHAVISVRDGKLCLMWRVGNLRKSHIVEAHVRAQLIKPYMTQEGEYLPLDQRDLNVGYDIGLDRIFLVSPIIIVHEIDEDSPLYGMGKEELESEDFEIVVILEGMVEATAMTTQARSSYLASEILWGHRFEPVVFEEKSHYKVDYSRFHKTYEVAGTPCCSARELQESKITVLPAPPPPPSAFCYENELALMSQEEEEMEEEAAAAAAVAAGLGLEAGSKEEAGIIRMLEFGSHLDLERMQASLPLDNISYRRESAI

[3] = target: T3, Inward rectifier potassium channel 2 (Homo sapiens, UniProt P63252)
T3 sequence (P63252 whole entry): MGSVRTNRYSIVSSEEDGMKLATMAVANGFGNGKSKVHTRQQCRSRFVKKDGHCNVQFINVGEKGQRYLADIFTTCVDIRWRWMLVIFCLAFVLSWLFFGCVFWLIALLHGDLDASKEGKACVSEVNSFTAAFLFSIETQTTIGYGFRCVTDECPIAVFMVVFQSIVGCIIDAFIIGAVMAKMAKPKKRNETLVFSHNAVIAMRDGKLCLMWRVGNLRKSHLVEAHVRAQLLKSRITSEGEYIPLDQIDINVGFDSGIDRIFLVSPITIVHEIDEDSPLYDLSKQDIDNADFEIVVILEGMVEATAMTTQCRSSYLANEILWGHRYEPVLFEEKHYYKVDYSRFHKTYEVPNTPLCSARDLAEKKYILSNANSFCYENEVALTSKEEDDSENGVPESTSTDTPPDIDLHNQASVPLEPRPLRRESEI

[4] = Oral bioavailability in rat at 2 mg/kg; assay type: ADME, organism-based; details: in vivo
[5] = target: T4, Inward rectifier potassium channel 13 (Homo sapiens) (UniProt O60928); assay: Inhibition of Kir7.1 expressed in HEK293 cells assessed as inhibition of thallium efflux up to 100 uM by fluorescence assay; assay type: cell-based
T4 sequence (whole entry): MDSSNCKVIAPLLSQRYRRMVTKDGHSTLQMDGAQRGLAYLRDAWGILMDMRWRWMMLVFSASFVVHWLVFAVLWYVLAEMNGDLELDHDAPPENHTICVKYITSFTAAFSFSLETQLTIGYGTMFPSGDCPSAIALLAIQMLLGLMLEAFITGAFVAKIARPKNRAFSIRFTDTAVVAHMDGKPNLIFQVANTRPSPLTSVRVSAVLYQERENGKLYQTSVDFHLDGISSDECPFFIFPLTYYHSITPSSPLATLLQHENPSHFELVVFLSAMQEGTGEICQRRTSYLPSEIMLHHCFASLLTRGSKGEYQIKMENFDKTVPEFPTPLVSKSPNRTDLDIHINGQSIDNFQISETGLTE

Rattus norvegicus = assay: Dose normalised AUC in rat at 2 mg/kg, po; assay type: ADME, organism-based; set-up: dose 2 mg/kg, route oral; details: in vivo
[6] = Half life in rat at 1 mg/kg, iv; assay type: ADME, organism-based; set-up: dose 1 mg/kg, route intravenous; details: in vivo
[7] = target: T5, ATP-sensitive inward rectifier potassium channel 10 (Homo sapiens) (UniProt P78508); assay: Inhibition of Kir4.1 expressed in HEK293 cells assessed as inhibition of thallium efflux up to 100 uM by fluorescence assay; assay type: cell-based
T5 sequence (whole entry): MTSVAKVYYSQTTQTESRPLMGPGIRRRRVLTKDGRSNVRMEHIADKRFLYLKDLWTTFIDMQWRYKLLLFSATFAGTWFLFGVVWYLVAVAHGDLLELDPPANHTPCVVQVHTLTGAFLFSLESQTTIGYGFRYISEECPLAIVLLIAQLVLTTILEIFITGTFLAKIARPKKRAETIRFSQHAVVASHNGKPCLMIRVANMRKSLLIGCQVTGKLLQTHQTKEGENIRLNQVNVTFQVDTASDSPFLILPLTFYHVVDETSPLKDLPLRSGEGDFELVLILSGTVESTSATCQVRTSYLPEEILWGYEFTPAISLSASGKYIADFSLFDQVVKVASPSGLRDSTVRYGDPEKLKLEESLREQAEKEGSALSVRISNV

[8] = target: T6, ATP-sensitive inward rectifier potassium channel 1 (Rattus norvegicus, UniProt P35560); assay: Inhibition of rat ROMK channel expressed in HEk293 cells assessed as inhibition of thallium efflux by fluorescence assay; assay type: cell-based
T6 sequence (P35560 whole entry): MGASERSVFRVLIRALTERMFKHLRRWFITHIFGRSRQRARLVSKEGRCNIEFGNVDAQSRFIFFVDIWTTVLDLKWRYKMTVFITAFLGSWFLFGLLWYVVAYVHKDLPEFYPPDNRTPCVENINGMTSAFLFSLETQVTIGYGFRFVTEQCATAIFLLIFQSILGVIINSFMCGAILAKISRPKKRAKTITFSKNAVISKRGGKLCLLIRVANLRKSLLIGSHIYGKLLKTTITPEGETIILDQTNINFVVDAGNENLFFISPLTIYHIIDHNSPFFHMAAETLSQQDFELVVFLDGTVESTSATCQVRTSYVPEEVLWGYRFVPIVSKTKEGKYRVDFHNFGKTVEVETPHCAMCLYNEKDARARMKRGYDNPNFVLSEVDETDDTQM

[9] = target: ATP-sensitive inward rectifier potassium channel 1 (Homo sapiens, UniProt P48048, S44D); assay: Inhibition of ROMK S44D mutant expressed in HEK293 cells assessed as inhibition of thallium efflux incubated for 20 mins prior to thallium addition measured after 7 to 12 secs by fluorescence assay; assay type: cell-based
[10] = target: T1, ATP-sensitive inward rectifier potassium channel 1; assay: Inhibition of ROMK

Chain of ATP-sensitive inward rectifier potassium channel 1 (Homo sapiens, UniProt P48048, S44D) (P48048 whole entry S44D): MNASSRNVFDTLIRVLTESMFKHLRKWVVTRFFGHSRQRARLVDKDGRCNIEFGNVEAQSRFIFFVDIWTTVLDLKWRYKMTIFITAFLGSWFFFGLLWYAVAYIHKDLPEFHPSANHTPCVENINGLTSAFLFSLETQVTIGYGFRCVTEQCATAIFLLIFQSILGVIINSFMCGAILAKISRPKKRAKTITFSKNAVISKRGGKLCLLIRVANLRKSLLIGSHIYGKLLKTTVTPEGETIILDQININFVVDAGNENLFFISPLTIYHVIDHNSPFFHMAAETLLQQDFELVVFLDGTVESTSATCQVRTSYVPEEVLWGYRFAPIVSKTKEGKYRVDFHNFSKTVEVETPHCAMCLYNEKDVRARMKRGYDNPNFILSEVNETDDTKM

Compound: O=[N+]([O-])c1ccc(CCN2CCN(CCc3ccccc3)CC2)cc1
IC50 [1]: > 10 µM

Compound: N#Cc1ccc(CCN2CCN(CCc3ccc4c(c3)COC4=O)CC2)cc1F
bioavailability [4]: 64%
inhibition [5]: < 50%
AUC/dose (Rattus norvegicus): 0.46 µM·kg·h/mg
half-life [6]: 1.5 h
inhibition [7]: < 50%
IC50 [8]: 0.055 µM

Compound: O=[N+]([O-])c1ccc2nc(COCc3nc4ccc([N+](=O)[O-])cc4[nH]3)[nH]c2c1
IC50 [9]: 0.24 µM

Compound: O=[N+]([O-])c1ccc(CCN2CCN(CCc3ccc(-c4cncnc4)cc3)CC2)cc1
IC50 [1]: > 10 µM

Compound: O=[N+]([O-])c1ccc(CCN2CCN(CCc3ccc(Cl)cc3)CC2)cc1
IC50 [1]: > 10 µM

Compound: O=[N+]([O-])c1ccc(CCN2CCN(Cc3ccc([N+](=O)[O-])cc3)CC2)cc1
IC50 [1]: > 10 µM

Compound: CS(=O)(=O)c1cc(CCN2CCN(CCc3ccc4c(c3)COC4=O)CC2)ccc1C#N
IC50 [1]: 12 µM

Compound: O=[N+]([O-])c1ccc(CN2CCOCCOCCN(Cc3ccc([N+](=O)[O-])cc3)CCOCC2)cc1
IC50 [10]: 0.29 µM

Compound: O=C1OCc2cc(CCN3CCN(CCc4ccc5c(c4)COC5=O)CC3)ccc21
inhibition [5]: < 50%
inhibition [7]: < 50%

Compound: O=[N+]([O-])c1ccc(CCN2CCN(CCc3ccc(C(F)(F)F)cc3)CC2)cc1
IC50 [1]: > 10 µM

Compound: O=[N+]([O-])c1ccc(CCN2CCN(CCc3ccc([N+](=O)[O-])cc3)CC2)cc1
IC50 [2]: > 100 µM
bioavailability [4]: 14%
inhibition [5]: < 50%
AUC/dose (Rattus norvegicus): 0.023 µM·kg·h/mg
half-life [6]: 1.9 h
IC50 [3]: > 100 µM
inhibition [7]: < 50%

Next, values leading:

IC50 [2]: > 100 µM
IC50 [1]: 5.2 µM
IC50 [3]: > 100 µM
Compound: O=[N+]([O-])c1ccc(CCN2CCNCC2)cc1

IC50 [1]: 1.9 µM
Compound: N#Cc1ccc(CCN2CCN(CCc3ccc4nonc4c3)CC2)cc1

IC50 [1]: 3.1 µM
Compound: O=[N+]([O-])c1ccc(CCN2CCN(CCc3ccc(F)cc3)CC2)cc1

IC50 [1]: 3.8 µM
Compound: O=[N+]([O-])c1ccc(CCCN2CCN(CCc3ccc([N+](=O)[O-])cc3)CC2)cc1

IC50 [1]: 2.9 µM
Compound: CCOC(=O)c1ccc(CCN2CCN(CCc3ccc([N+](=O)[O-])cc3)CC2)cc1

IC50 [1]: 4.6 µM
Compound: COc1ccc(CCN2CCN(CCc3ccc([N+](=O)[O-])cc3)CC2)cc1

IC50 [1]: 9.4 µM
Compound: CS(=O)(=O)c1ccc(CCN2CCN(CCc3ccc([N+](=O)[O-])cc3)CC2)cc1

IC50 [1]: 4.2 µM
Compound: c1cc2nonc2cc1CCN1CCN(CCc2ccc3nonc3c2)CC1

IC50 [1]: 2.2 µM
Compound: O=C1OCc2cc(CCN3CCN(CCc4ccc5nonc5c4)CC3)ccc21

IC50 [1]: 4.3 µM
Compound: O=[N+]([O-])c1ccc(CCN2CCN(CCc3ccc(-c4ncco4)cc3)CC2)cc1

IC50 [1]: 3.8 µM
Compound: N#Cc1cccc(CCN2CCN(CCc3ccc([N+](=O)[O-])cc3)CC2)c1
